Results from ChEMBL document CHEMBL4138123, “Design, synthesis and biological evaluation of novel pyrazolochalcones as potential modulators of PI3K/Akt/mTOR pathway and inducers of apoptosis in breast cancer cells” (Eur J Med Chem, 2017).

How the values were obtained:
Format in all cases: functional
[1] = system: ACHN; test: Cytotoxicity against human ACHN cells assessed as cell growth at 0.01 uM after 48 hrs by sulforhodamine B assay relative to control; conditions: read-out: Activity
[2] = system: SNB-19; test: Cytotoxicity against human SNB19 cells assessed as growth inhibition after 48 hrs by sulforhodamine B assay; conditions: SNB-19, 48 h
[3] = system: MCF7; test: Cytotoxicity against human MCF7 cells assessed as cell growth at 100 uM after 48 hrs by sulforhodamine B assay relative to control; conditions: MCF7, 48 h, read-out: Activity
[4] = system: RPMI-8226; test: Cytotoxicity against human RPMI8226 cells assessed as growth inhibition after 48 hrs by sulforhodamine B assay; conditions: RPMI-8226, 48 h
[5] = system: OVCAR-4; test: Cytotoxicity against human OVCAR4 cells assessed as cell growth at 1 uM after 48 hrs by sulforhodamine B assay relative to control; conditions: OVCAR-4, 48 h, read-out: Activity
[6] = system: SW-620; test: Cytotoxicity against human SW620 cells assessed as growth inhibition after 48 hrs by sulforhodamine B assay; conditions: SW-620, 48 h
[7] = system: RPMI-8226; test: Cytotoxicity against human RPMI8226 cells assessed as cell growth at 0.1 uM after 48 hrs by sulforhodamine B assay relative to control; conditions: RPMI-8226, 48 h, read-out: Activity
[8] = system: U-251; test: Cytotoxicity against human U251 cells assessed as cell growth at 1 uM after 48 hrs by sulforhodamine B assay relative to control; conditions: U-251, 48 h, read-out: Activity
[9] = system: M14; test: Cytotoxicity against human M14 cells assessed as cell growth at 100 uM after 48 hrs by sulforhodamine B assay relative to control; conditions: M14, 48 h, read-out: Activity
[10] = system: SN12C; test: Cytotoxicity against human SN12C cells assessed as cell growth at 0.1 uM after 48 hrs by sulforhodamine B assay relative to control; conditions: read-out: Activity
[11] = system: MOLT-4; test: Cytotoxicity against human MOLT4 cells assessed as cell growth at 100 uM after 48 hrs by sulforhodamine B assay relative to control; conditions: MOLT-4, 48 h, read-out: Activity
[12] = system: SR; test: Cytotoxicity against human SR cells assessed as growth inhibition after 48 hrs by sulforhodamine B assay
[13] = system: A498; test: Cytotoxicity against human A498 cells assessed as growth inhibition after 48 hrs by sulforhodamine B assay; conditions: A498, 48 h
[14] = system: HCT-15; test: Cytotoxicity against human HCT15 cells assessed as cell growth at 0.01 uM after 48 hrs by sulforhodamine B assay relative to control; conditions: HCT-15, 48 h, read-out: Activity
[15] = system: A549; test: Cytotoxicity against human A549/ATCC cells assessed as growth inhibition after 48 hrs by sulforhodamine B assay; conditions: A549, 48 h
[16] = system: MDA-MB-435; test: Cytotoxicity against human MDA-MB-435 cells assessed as cell growth at 10 uM after 48 hrs by sulforhodamine B assay relative to control; conditions: MDA-MB-435, 48 h, read-out: Activity
[17] = system: HCT-116; test: Cytotoxicity against human HCT116 cells assessed as cell growth at 1 uM after 48 hrs by sulforhodamine B assay relative to control; conditions: HCT-116, 48 h, read-out: Activity
[18] = system: T47D; test: Cytotoxicity against human T47D cells assessed as cell growth at 10 uM after 48 hrs by sulforhodamine B assay relative to control; conditions: read-out: Activity
[19] = system: HCC 2998; test: Cytotoxicity against human HCC2998 cells assessed as growth inhibition after 48 hrs by sulforhodamine B assay; conditions: HCC 2998, 48 h
[20] = system: COLO 205; test: Cytotoxicity against human COLO205 cells assessed as cell growth at 10 uM after 48 hrs by sulforhodamine B assay relative to control; conditions: COLO 205, 48 h, read-out: Activity
[21] = system: MDA-MB-435; test: Cytotoxicity against human MDA-MB-435 cells assessed as cell growth at 1 uM after 48 hrs by sulforhodamine B assay relative to control; conditions: MDA-MB-435, 48 h, read-out: Activity
[22] = system: A549; test: Cytotoxicity against human A549/ATCC cells assessed as cell growth at 0.01 uM after 48 hrs by sulforhodamine B assay relative to control; conditions: A549, 48 h, read-out: Activity
[23] = system: MOLT-4; test: Cytotoxicity against human MOLT4 cells assessed as cell growth at 0.1 uM after 48 hrs by sulforhodamine B assay relative to control; conditions: MOLT-4, 48 h, read-out: Activity
[24] = system: NCI-H322M; test: Cytotoxicity against human NCI-H322M cells assessed as cell growth at 0.01 uM after 48 hrs by sulforhodamine B assay relative to control; conditions: read-out: Activity
[25] = system: 786-0; test: Cytotoxicity against human 786-0 cells assessed as cell growth at 0.1 uM after 48 hrs by sulforhodamine B assay relative to control; conditions: 786-0, 48 h, read-out: Activity
[26] = system: T47D; test: Cytotoxicity against human T47D cells assessed as cell growth at 0.1 uM after 48 hrs by sulforhodamine B assay relative to control; conditions: read-out: Activity
[27] = system: COLO 205; test: Cytotoxicity against human COLO205 cells assessed as cell growth at 0.1 uM after 48 hrs by sulforhodamine B assay relative to control; conditions: COLO 205, 48 h, read-out: Activity
[28] = system: K562; test: Cytotoxicity against human K562 cells assessed as cell growth at 1 uM after 48 hrs by sulforhodamine B assay relative to control; conditions: K562, 48 h, read-out: Activity
[29] = system: TK-10; test: Cytotoxicity against human TK10 cells assessed as cell growth at 100 uM after 48 hrs by sulforhodamine B assay relative to control; conditions: TK-10, 48 h, read-out: Activity
[30] = system: A549; test: Cytotoxicity against human A549/ATCC cells assessed as cell growth at 1 uM after 48 hrs by sulforhodamine B assay relative to control; conditions: A549, 48 h, read-out: Activity
[31] = system: SN12C; test: Cytotoxicity against human SN12C cells assessed as cell growth at 0.01 uM after 48 hrs by sulforhodamine B assay relative to control; conditions: read-out: Activity
[32] = system: SK-OV-3; test: Cytotoxicity against human SKOV3 cells assessed as growth inhibition after 48 hrs by sulforhodamine B assay; conditions: SK-OV-3, 48 h
[33] = system: HCC 2998; test: Cytotoxicity against human HCC2998 cells assessed as cell growth at 0.01 uM after 48 hrs by sulforhodamine B assay relative to control; conditions: HCC 2998, 48 h, read-out: Activity
[34] = system: Hs-578T; test: Cytotoxicity against human Hs 578T cells assessed as cell growth at 0.1 uM after 48 hrs by sulforhodamine B assay relative to control; conditions: read-out: Activity
[35] = system: UO-31; test: Cytotoxicity against human UO31 cells assessed as cell growth at 1 uM after 48 hrs by sulforhodamine B assay relative to control; conditions: UO-31, 48 h, read-out: Activity
[36] = system: OVCAR-5; test: Cytotoxicity against human OVCAR5 cells assessed as growth inhibition after 48 hrs by sulforhodamine B assay; conditions: OVCAR-5, 48 h
[37] = read-out: LC50 (the source's name)

## COc1cc(C(=O)/C=C/c2cc(-c3ccc4c(c3)OCO4)n[nH]2)cc(OC)c1OC
[1]
  growth at 0.01 µM: 102%
[2]
  GI50: 2.34 µM
  TGI: 11.7 µM
[2]; [37]
  CC50: 35.6 µM
[3]
  growth at 100 µM: -69%
[4]
  GI50: 0.56 µM
  LC50: > 100 µM
  TGI: 2.53 µM
[5]
  growth at 1 µM: 47%
[6]
  GI50: 1.62 µM
  LC50 (lethal concentration, 50% net cell kill): 8.9 µM
  TGI: 3.8 µM
[7]
  growth at 0.1 µM: 93%
[8]
  growth at 1 µM: 63%
[9]
  growth at 100 µM: -84%
[10]
  growth at 0.1 µM: 96%
[11]
  growth at 100 µM: -13%
[12]
  GI50: 1.2 µM
  TGI: 5.63 µM
[12]; [37]
  CC50: > 100 µM
[13]
  GI50: 1.75 µM
  LC50: 15.3 µM
  TGI: 4.65 µM
[14]
  growth at 0.01 µM: 98%
[15]
  GI50: 2.13 µM
  LC50 (concentration giving 50% net cell kill): 30.1 µM
  TGI: 6.23 µM
[16]
  growth at 10 µM: -29%
[17]
  growth at 1 µM: 86%
[18]
  growth at 10 µM: -34%
[19]
  GI50: 2.02 µM
  LC50: 8.23 µM
  TGI: 4.07 µM
[20]
  growth at 10 µM: -47%
[21]
  growth at 1 µM: 94%
[22]
  growth at 0.01 µM: 100%
[23]
  growth at 0.1 µM: 98%
[24]
  growth at 0.01 µM: 101%
[25]
  growth at 0.1 µM: 98%
[26]
  growth at 0.1 µM: 77%
[27]
  growth at 0.1 µM: 98%
[28]
  growth at 1 µM: 74%
[29]
  growth at 100 µM: -96%
[30]
  growth at 1 µM: 85%
[31]
  growth at 0.01 µM: 98%
[32]
  GI50: 4.44 µM
  LC50: 38.8 µM
  TGI: 14.6 µM
[33]
  growth at 0.01 µM: 99%
[34]
  growth at 0.1 µM: 90%
[35]
  growth at 1 µM: 71%
[36]
  GI50: 2.63 µM
  LC50: 76.8 µM
  TGI: 9.6 µM
